Assay results published in US12310929B2, “Use of rasagiline for the treatment of restless legs syndrome” (TEVA PHARMACEUTICAL INDUSTRIES, LTD., priority 2006, dated 2025).
Read-outs that look alike come from different tables or passages of the source.

What was measured:
[1] = test system: patients with moderate to severe primary Restless Legs Syndrome; test: Placebo-controlled, double-blind, randomized clinical test in primary RLS (Example 8)
[2] = test system: RLS subjects; conditions: for Optimal Sleep (Absolute Change) Mean / Optimal Sleep (Absolute Change) Median / Optimal Sleep (Percent Change) Mean / Optimal Sleep (Percent Change) Median / Optimal Sleep Scale Mean / Optimal Sleep Scale Median / Sleep Quantity (Absolute Change) Mean / Sleep Quantity (Absolute Change) Median / Sleep Quantity (Percent Change) Mean / Sleep Quantity (Percent Change) Median / Sleep Quantity (raw score) Mean / Sleep Quantity (raw score) Median / Sleep Snoring (Percent Change) Mean / Sleep Snoring (Percent Change) Median / Short of Breath Scale Mean / Short of Breath Scale Median / Sleep Adequacy (Absolute Change) Mean / Sleep Adequacy (Absolute Change) Median / Sleep Adequacy (Percent Change) Mean / Sleep Adequacy (Percent Change) Median / Sleep Adequacy Mean / Sleep Adequacy Median / Sleep Disturbance (Absolute Change) Mean / Sleep Disturbance (Absolute Change) Median / Sleep Disturbance (Percent Change) Mean / Sleep Disturbance (Percent Change) Median / Sleep Disturbance Scale Mean / Sleep Disturbance Scale Median / Sleep Problems Index I (Absolute Change) Mean / Sleep Problems Index I (Absolute Change) Median / Sleep Problems Index I (Percent Change) Mean / Sleep Problems Index I (Percent Change) Median / Sleep Problems Index I Mean / Sleep Problems Index I Median / Sleep Problems Index II (Absolute Change) Mean / Sleep Problems Index II (Absolute Change) Median / Sleep Problems Index II (Percent Change) Mean / Sleep Problems Index II (Percent Change) Median / Sleep Problems Index II Mean / Sleep Problems Index II Median / Sleep Short of Breath (Absolute Change) Mean / Sleep Short of Breath (Absolute Change) Median / Sleep Snoring (Absolute Change) Mean / Sleep Snoring (Absolute Change) Median / Sleep Somnolence (Absolute Change) Mean / Sleep Somnolence (Absolute Change) Median / Sleep Somnolence (Percent Change) Mean / Sleep Somnolence (Percent Change) Median / Snoring Scale Mean / Snoring Scale Median / Somnolence Scale Mean / Somnolence Scale Median: rasagiline 1 mg/day oral
Protocol: This was the first clinical study in which rasagiline was administered to RLS subjects. The dosage regimen of 1 mg/day rasagiline was chosen based on the optimal dosage regimen for the symptomatic treatment of PD. […] Therefore, in the event that a subject could not tolerate the 1 mg daily dose of rasagiline, a daily dose of 0.5 mg rasagiline was permitted. Rasagiline was administered orally as a tablet. Both the 1 mg and 0.5 mg rasagiline tablets were beveled round tablets, flat, white to off-white, scored on one side, plain on the other side. Teva Pharmaceutical Industries Ltd. was responsible for the manufacture and primary packaging of study medications according to current Good Manufacturing Practice (cGMP) principles and guidelines applicable to investigational medicinal products.
The Sleep Scale is a 12-item scale that provides a comprehensive view across almost all dimensions of sleep including daytime somnolence, sleep disturbance, sleep adequacy and sleep quantity. The investigator scored subjects on this scale at the baseline and Week 4, and 8 visits. The change from baseline to each post-baseline study visit was calculated as a secondary efficacy endpoint. (Hays, R. D. & Steward, A. L. (1992). Sleep measures. In A. L. Stewart & J. E. Ware (eds.), Measuring functioning and well-being: The Medical Outcomes Study approach (pp. 235-259), Durham, NC: Duke University Press.
N is the number of participants in the study. A low score indicates the absence of problems and a high score indicates a very severe problem.

## C#CCN[C@@H]1CCc2ccccc21 [rasagiline, R-(+)-N-propargyl-1-aminoindan]
[1]; 0.5 mg and 1 mg groups, in comparison with the placebo group
  IRLSSG values, change from starting value: significant improvement
[1]; end of treatment, both patient groups
  subjective symptoms (tingling, cramps and pain in the legs, restlessness, difficulties falling or remaining asleep): either disappear or diminish to a tolerable minimum
[1]; patient reports
  hallucinations, somnolence, edema, nausea, vomiting or diarrhea: does not or only to a very minimal extent causes
[1]; patients in a moderate to severe stage of RLS
  clinical improvement: distinct clinical improvement
[1]; patients with moderate to severe RLS
  tolerability and safety: well tolerated and safe
[2]; VISIT WEEK 4, N=1
  Optimal Sleep (Absolute Change) Mean: 0.00
  Optimal Sleep (Absolute Change) Median: 0.00
  Optimal Sleep (Percent Change) Mean: 0.00%
  Optimal Sleep (Percent Change) Median: 0.00%
  Optimal Sleep Scale Mean: 1.00
  Optimal Sleep Scale Median: 1.00
  Sleep Quantity (Absolute Change) Mean: 0.00
  Sleep Quantity (Absolute Change) Median: 0.00
  Sleep Quantity (Percent Change) Mean: 0.00%
  Sleep Quantity (Percent Change) Median: 0.00%
  Sleep Quantity (raw score) Mean: 7.00
  Sleep Quantity (raw score) Median: 7.00
  Sleep Snoring (Percent Change) Mean: 0.00%
  Sleep Snoring (Percent Change) Median: 0.00%
[2]; VISIT WEEK 4, N=2
  Short of Breath Scale Mean: 0.00
  Short of Breath Scale Median: 0.00
  Sleep Adequacy (Absolute Change) Mean: 15.00
  Sleep Adequacy (Absolute Change) Median: 15.00
  Sleep Adequacy (Percent Change) Mean: 25.00%
  Sleep Adequacy (Percent Change) Median: 25.00%
  Sleep Adequacy Mean: 55.00
  Sleep Adequacy Median: 55.00
  Sleep Disturbance (Absolute Change) Mean: −7.50
  Sleep Disturbance (Absolute Change) Median: −7.50
  Sleep Disturbance (Percent Change) Mean: −20.00%
  Sleep Disturbance (Percent Change) Median: −20.00%
  Sleep Disturbance Scale Mean: 33.75
  Sleep Disturbance Scale Median: 33.75
  Sleep Problems Index I (Absolute Change) Mean: −6.67
  Sleep Problems Index I (Absolute Change) Median: −6.67
  Sleep Problems Index I (Percent Change) Mean: −40.00%
  Sleep Problems Index I (Percent Change) Median: −40.00%
  Sleep Problems Index I Mean: 26.67
  Sleep Problems Index I Median: 26.67
  Sleep Problems Index II (Absolute Change) Mean: −6.67
  Sleep Problems Index II (Absolute Change) Median: −6.67
  Sleep Problems Index II (Percent Change) Mean: 24.00%
  Sleep Problems Index II (Percent Change) Median: −24.00%
  Sleep Problems Index II Mean: 33.89
  Sleep Problems Index II Median: 33.89
  Sleep Short of Breath (Absolute Change) Mean: 0.00
  Sleep Short of Breath (Absolute Change) Median: 0.00
  Sleep Snoring (Absolute Change) Mean: 0.00
  Sleep Snoring (Absolute Change) Median: 0.00
  Sleep Somnolence (Absolute Change) Mean: −0.00
  Sleep Somnolence (Absolute Change) Median: −0.00
  Sleep Somnolence (Percent Change) Mean: −20.00%
  Sleep Somnolence (Percent Change) Median: −20.00%
  Snoring Scale Mean: 40.00
  Snoring Scale Median: 40.00
  Somnolence Scale Mean: 40.00
  Somnolence Scale Median: 40.00
[2]; VISIT WEEK 8, N=1
  Optimal Sleep (Absolute Change) Mean: 0.00
  Optimal Sleep (Absolute Change) Median: 0.00
  Optimal Sleep (Percent Change) Mean: 0.00%
  Optimal Sleep (Percent Change) Median: 0.00%
  Optimal Sleep Scale Mean: 1.00
  Optimal Sleep Scale Median: 1.00
  Short of Breath Scale Mean: 0.00
  Short of Breath Scale Median: 0.00
  Sleep Adequacy (Absolute Change) Mean: 40.00
  Sleep Adequacy (Absolute Change) Median: 40.00
  Sleep Adequacy (Percent Change) Mean: 66.67%
  Sleep Adequacy (Percent Change) Median: 66.67%
  Sleep Adequacy Mean: 100.00
  Sleep Adequacy Median: 100.00
  Sleep Disturbance (Absolute Change) Mean: −16.25
  Sleep Disturbance (Absolute Change) Median: −16.25
  Sleep Disturbance (Percent Change) Mean: −43.33%
  Sleep Disturbance (Percent Change) Median: −43.33%
  Sleep Disturbance Scale Mean: 21.25
  Sleep Disturbance Scale Median: 21.25
  Sleep Problems Index I (Absolute Change) Mean: −16.67
  Sleep Problems Index I (Absolute Change) Median: −16.67
  Sleep Problems Index I (Percent Change) Mean: −100.00%
  Sleep Problems Index I (Percent Change) Median: −100.00%
  Sleep Problems Index I Mean: 0.00
  Sleep Problems Index I Median: 0.00
  Sleep Problems Index II (Absolute Change) Mean: −16.11
  Sleep Problems Index II (Absolute Change) Median: −16.11
  Sleep Problems Index II (Percent Change) Mean: −58.00%
  Sleep Problems Index II (Percent Change) Median: −58.00%
  Sleep Problems Index II Mean: 11.67
  Sleep Problems Index II Median: 11.67
  Sleep Quantity (Absolute Change) Mean: 0.00
  Sleep Quantity (Absolute Change) Median: 0.00
  Sleep Quantity (Percent Change) Mean: 0.00%
  Sleep Quantity (Percent Change) Median: 0.00%
  Sleep Quantity (raw score) Mean: 7.00
  Sleep Quantity (raw score) Median: 7.00
  Sleep Short of Breath (Absolute Change) Mean: 0.00
  Sleep Short of Breath (Absolute Change) Median: 0.00
  Sleep Snoring (Absolute Change) Mean: 20.00
  Sleep Snoring (Absolute Change) Median: 20.00
  Sleep Snoring (Percent Change) Mean: 25.00%
  Sleep Snoring (Percent Change) Median: 25.00%
  Sleep Somnolence (Absolute Change) Mean: 0.00
  Sleep Somnolence (Absolute Change) Median: 0.00
  Sleep Somnolence (Percent Change) Mean: 0.00%
  Sleep Somnolence (Percent Change) Median: 0.00%
  Snoring Scale Mean: 100.00
  Snoring Scale Median: 100.00
  Somnolence Scale Mean: 13.33
  Somnolence Scale Median: 13.33
[2]; by eight weeks, remaining subject
  improvement in the Sleep Problems Index II: 58%
